# Data taken from US20260217701A1, “SELECTIVE BET INHIBITORS AND USES THEREOF” (Tay Therapeutics Limited, priority 2022, published 2026).
# Values joined by “and” are separate entries in the source; they are usually repeats but may differ in a detail not shown here. Identical values can stand only once. Like-named read-outs stand apart in the source and are kept apart here.
# Experiment: Dog PK study #1 (Compound A IV and PO, propylene glycol formulation)
# Type: in vivo, beagle dogs
# Conditions: for Vd: read-out: Vss—obs
# Excerpt: The purpose of this study was to examine the pharmacokinetics of Compound A in beagle dogs. Four beagle dog studies were undertaken, one where Compound A was formulated in a propylene glycol based formulation (Dog PK study #1-PO and IV), a second where Compound A was formulated in a HPBCD based formulation (Dog PK study #2-IV), a third where Compound A was formulated in a 5% DMSO/15% PEG-400/80% (10% VE-TPGS) formulation (Dog PK study #3-PO), and a fourth where Compound A was formulated in […]/15% PEG-400/80% (10% VE-TPGS) formulation (Dog PK study #4-PO).
# For Dog PK study #1, two solutions of different concentrations of Compound A were prepared in 20% propylene glycol/20% Vitamin E TPGS/60% water as outlined in Table 2A in Experimental Method A. The solutions of Compound A in 20% propylene glycol/20% Vitamin E TPGS/60% water were prepared freshly prior to use. The Compound A solutions administered were then administered to animals either intravenously (IV) or orally (PO) and animals were then monitored over a 24 h period (Table 3B). Body weight was recorded prior to dosing, and detailed clinical observations were made prior to dosing and throughout the study, as needed.
# Blood samples (~0.3 mL) were collected according to a schedule (shown below) by venipuncture of peripheral veins except for the dosing vein, and EDTA-K2 was used as anticoagulant. Within 30 minutes of collection, the samples were centrifuged at approximately 2000 times g-force for 10 minutes at 4° C. to obtain blood plasma. The plasma samples were immediately divided into two aliquots (~75 μL each), transferred to a cryogenic vial, and stored in a freezer at −75±15° C. prior to analysis.
# Blood samples for IV were collected at 0.083, 0.25, 0.5, 1, 2, 4, 8, 24 h and blood samples for PO were collected at 0.25, 0.5, 1, 2, 4, 8, and 24 h following the initial dosing (0 h).
# The concentration of Compound A in the blood plasma was determined through liquid chromatography-mass spectrometry (LC-MS). The experiments were conducted on a Shimadzu HPLC(DGU-20A5R; LC-30AD; SIL-30AC; Rack Changer II; CTO-30A; and CBM-20A) and AB API 5500+LC/MS/MS instrument with an Agilent Poroshell EC-C18 4 μm (50×2.1 mm) column. A gradient of 95% water (0.1% formic acid)/95% acetonitrile (0.1% formic acid) was used as the mobile phase. The sample injection volume was 10 μL, and the flow rate was 0.6 mL/min. The gathered data were used for pharmacokinetic calculations using T1/2, C0, AUClast, AUCinf, MRTinf, Cl, Vss, and Number of Points for Regression as parameters.
# The desired serial concentrations of working solutions were achieved by diluting stock solution of analyte with 50% acetonitrile in water solution. 5 μL of working solutions (5, 10, 20, 50, 100, 500, 1000, 5000, 10000 ng/mL) were added to 50 μL of the blank Beagle Dogs plasma to achieve calibration standards of 0.5~1000 ng/ml (0.5, 1, 2, 5, 10, 50, 100, 500, 1000 ng/ml) in a total volume of 55 μL. Five quality control samples at 1 ng/ml, 2 ng/ml, 5 ng/ml, 50 ng/mL and 800 ng/ml for plasma were prepared independently of those used for the calibration curves. These QC samples were prepared on the day of analysis in the same way as calibration standards.
# 55 μL standards, 55 μL QC samples and 55 μL unknown samples (50 μl plasma with 5 μL blank solution were added to 200 μL of acetonitrile containing IS mixture (verapamil) for precipitating protein respectively. Then the samples were vortexed for 30 s. After centrifugation at 4° C., 3900 rpm for 15 min, the supernatant was diluted 3 times with water. 10 μL of diluted supernatant was injected into the LC/MS/MS system for quantitative analysis.
# [1] = IV 1 mg/kg, individual animals, 1 mg/kg
# [2] = beagle, dog, plasma, iv, 1 mg/kg, IV 1 mg/kg, individual animals, read-out: Plasma concentration
# [3] = beagle, dog, plasma, iv, 1 mg/kg, IV 1 mg/kg, mean, read-out: Average plasma concentration
# [4] = beagle, dog, plasma, iv, 1 mg/kg, IV 1 mg/kg, mean
# [5] = beagle, dog, plasma, iv, 1 mg/kg, IV 1 mg/kg, individual animals
# [6] = beagle, dog, plasma, po, 5 mg/kg, oral 5 mg/kg, individual animals, read-out: Plasma concentration
# [7] = beagle, dog, plasma, po, 5 mg/kg, oral 5 mg/kg, mean, read-out: Average plasma concentration
# [8] = beagle, dog, plasma, po, 5 mg/kg, oral 5 mg/kg, mean
# [9] = beagle, dog, plasma, po, 5 mg/kg, oral 5 mg/kg, individual animals
# [10] = oral 5 mg/kg, individual animals, 5 mg/kg
compound,measurement,setting,value
"Cn1cc(-c2ccccc2)c(-c2cn(C)c(=O)c3[nH]c(-c4cnn(C(F)(F)F)c4)cc23)cc1=O [Compound A, 6-methyl-4-(1-methyl-2-oxo-5-phenyl-1,2-dihydropyridin-4-yl)-2-(1-(trifluoromethyl)-1H-pyrazol-4-yl)-1,6-dihydro-7H-pyrrolo[2,3-c]pyridin-7-one]",AUClast,[1],4746 ng·h/mL and 2876 ng·h/mL and 7862 ng·h/mL
same,AUClast/D,[1],4746 (ng · h/mL)/(mg/kg) and 2876 (ng · h/mL)/(mg/kg) and 7862 (ng · h/mL)/(mg/kg)
same,AUClnf,[1],4892 ng·h/mL and 2944 ng·h/mL and 8955 ng·h/mL
same,AUC—%Extrap—obs,[1],2.98% and 2.32% and 12.2%
same,C0,[1],1618 ng/mL and 1767 ng/mL
same,CI_obs,[1],3.41 mL/min/kg and 5.66 mL/min/kg and 1.86 mL/min/kg
same,MRTlnf—obs,[1],5.21 h and 4.15 h and 10.0 h
same,T1/2,[1],5.23 h and 8.60 h
same,Vss—obs,[1],1.41 L/kg and 1.12 L/kg
same,AUClast/D,"IV 1 mg/kg, mean",5162 (ng · h/mL)/(mg/kg)
same,AUC—%Extrap—obs,"IV 1 mg/kg, mean",5.8%
same,CI_obs,"IV 1 mg/kg, mean",3.64 mL/min/kg
same,MRTlnf—obs,"IV 1 mg/kg, mean",6.5 h
same,time over which plasma concentration increased after oral administration,"PO, all animals",2 h
same,concentration at 0.083 h,[2],1480 ng/mL
same,concentration at 0.083 h,[3],1480 ng/mL
same,concentration at 0.25 h,[2],1130 ng/mL
same,concentration at 0.25 h,[3],1130 ng/mL
same,concentration at 0.5 h,[2],971 ng/mL
same,concentration at 0.5 h,[3],912 ng/mL
same,concentration at 1 h,[2],802 ng/mL
same,concentration at 1 h,[3],764 ng/mL
same,concentration at 2 h,[2],594 ng/mL
same,concentration at 2 h,[3],586 ng/mL
same,concentration at 4 h,[4],293 ng/mL
same,concentration at 8 h,[4],169 ng/mL
same,concentration at 24 h,[4],38.7 ng/mL
same,half-life,[5],5.26 h
same,C0,"beagle, dog, plasma, iv, 1 mg/kg, IV 1 mg/kg, individual animals, read-out: C0",1690 ng/mL
same,Vd,[5],1.06 L/kg
same,AUC,[4],5600 ng·h/mL
same,AUC(0-t),[4],5160 ng·h/mL
same,half-life,[4],6.37 h
same,C0,"beagle, dog, plasma, iv, 1 mg/kg, IV 1 mg/kg, mean, read-out: C0",1690 ng/mL
same,Vd,[4],1.2 L/kg
same,concentration at 0.25 h,[6],25.1 ng/mL
same,concentration at 0.25 h,[7],26.7 ng/mL
same,concentration at 0.5 h,[6],147 ng/mL
same,concentration at 0.5 h,[7],127 ng/mL
same,concentration at 1 h,[7],293 ng/mL
same,concentration at 2 h,[7],435 ng/mL
same,concentration at 4 h,[8],369 ng/mL
same,concentration at 8 h,[8],123 ng/mL
same,concentration at 24 h,[8],29.9 ng/mL
same,AUC,[9],4520 ng·h/mL
same,half-life,[9],4.54 h
same,AUC,[8],4270 ng·h/mL
same,AUC(0-t),[8],3500 ng·h/mL
same,half-life,[8],4.07 h
same,Cmax,"beagle, dog, plasma, po, 5 mg/kg, oral 5 mg/kg, mean, read-out: Cmax",435 ng/mL
same,Tmax,"beagle, dog, plasma, oral 5 mg/kg, individual animals",2 h
same,AUClast,[10],4398 ng·h/mL and 2122 ng·h/mL and 3976 ng·h/mL
same,AUClast/D,[10],880 (ng · h/mL)/(mg/kg) and 424 (ng · h/mL)/(mg/kg) and 795 (ng · h/mL)/(mg/kg)
same,AUClnf,[10],4019 ng·h/mL
same,AUC—%Extrap—obs,[10],2.78% and 1.09%
same,Cmax,[10],498 ng/mL and 228 ng/mL and 580 ng/mL
same,F,[10],16.2% and 8.22% and 14.4%
same,MRTlnf—obs,[10],6.47 h and 5.27 h
same,T1/2,[10],3.61 h
same,AUClast/D,"oral 5 mg/kg, mean",700 (ng · h/mL)/(mg/kg)
same,AUC—%Extrap—obs,"oral 5 mg/kg, mean",1.93%
same,F,"oral 5 mg/kg, mean",12.9%
same,MRTlnf—obs,"oral 5 mg/kg, mean",5.87 h
same,availability and tolerability,overall statement on the four dog PK studies,IV and orally available and well tolerated
